Tests used:
[1] = system: Pf20S β5; assay: Hydrolysis of suc-LLVY-AMC by Pf20S, time courses of inhibition; assay type: biochemical, Plasmodium falciparum
[2] = system: Pf strain 4884 (ART-resistant); assay: Growth inhibition of Pf strain 4884; assay type: cell-based, Plasmodium falciparum
[3] = system: artemisinin-resistant Pf Cam3.I^R539T; assay: Modified ring-stage survival assay, combination with DHA, isobologram; assay type: cell-based, Plasmodium falciparum; settings: 3-h pulse of DHA, continuous TDI-8304 for further 69 h; parasitemia at 72 h
[4] = system: P. falciparum strain Pf 3D7; assay: Growth inhibition of erythrocytic stage P. falciparum Pf 3D7; assay type: cell-based, Plasmodium falciparum
[5] = system: polyubiquitinated proteins in Pf trophozoites; assay: Accumulation of polyubiquitinated proteins in parasites; assay type: cell-based, Plasmodium falciparum; settings: 6-hour exposure, 1 μM
[6] = system: P. falciparum Pf3D7^0087/N9; assay: Humanized mouse model of Pf infection, parasitemia; assay type: in vivo, NOD-SCID IL-2R-null mice transfused with human erythrocytes; settings: s.c. 100 mg/kg b.i.d., days 3 – 6 post infection
[7] = system: artemisinin-sensitive Pf Cam3.I^Rev; assay: Modified ring-stage survival assay, combination with DHA, isobologram; assay type: cell-based, Plasmodium falciparum; settings: 3-h pulse of DHA, continuous TDI-8304 for further 69 h; parasitemia at 72 h
[8] = system: P. falciparum lab strain Dd2; assay: Growth inhibition of Pf Dd2; assay type: cell-based, Plasmodium falciparum
[9] = system: Pf Dd2β6A117D; assay: Growth inhibition of proteasome inhibitor-resistant Pf Dd2β6A117D; assay type: cell-based, Plasmodium falciparum; settings: relative to Dd2
[10] = system: Pf20S β5; assay: Blocking of MV151 labelling of Pf20S β5; assay type: binding, Plasmodium falciparum; settings: with or without WLW-VS
[11] = system: Pf Dd2β5A49S; assay: Growth inhibition of proteasome inhibitor-resistant Pf Dd2β5A49S; assay type: cell-based, Plasmodium falciparum; settings: relative to Dd2
[12] = system: Pf strain 3663 (ART-sensitive); assay: Growth inhibition of Pf strain 3663; assay type: cell-based, Plasmodium falciparum
[13] = system: Pf strain HB3 (chloroquine-sensitive); assay: Growth inhibition of Pf strain HB3; assay type: cell-based, Plasmodium falciparum

Compound: O=C(NC1CCCC1)[C@@H]1CCCCOc2cccc(c2)C[C@H](N2CCCC2=O)C(=O)N[C@@H](CCN2CCOCC2)C(=O)N1 [TDI-8304]
- t1/2 half-life for the Pf20S:TDI-8304 complex [1]: 14.4 min
- Inhibition modality ([1]; induced-fit mechanism): time-dependent inhibition
- Activity against Pf strain 4884 [2]: comparable activity
- Interaction with DHA (isobologram) [3]: synergistic killing
- Potency (EC50) against P. falciparum Pf 3D7, in words [4]: highly potent
- EC90 ([4]; strain not given, used as exposure threshold): 29 nM
- Accumulation of polyubiquitinated proteins [5]: accumulation of polyubiquitinated proteins
- Reduction of parasitemia, one mouse [6]: 2 log10
- Interaction with DHA (isobologram) [7]: synergistic killing
- Potency against P. falciparum lab strain Dd2 [8]: potent
- Reduction in potency against Dd2β6A117D [9]: ~ 18 fold
- Blocking of labelling of Pf20S β5 by MV151 [10]: dose-dependently blocked labelling
- EC50 against Dd2β5A49S compared with Dd2 [11]: comparable
- Activity against Pf strain 3663 [12]: comparable activity
- Activity against Pf strain HB3 [13]: comparable activity
